In patent publication US6201129A, “Tricyclic derivatives and their use as anti-cancer agents” (Univ. College Cardiff Consultants, priority 1997, dated 2001):

Tested on: HT1080scc2 (clone of human fibrosarcoma cell-line HT1080)
Assay: Cell proliferation/cytotoxicity assay, methylene blue biomass staining
Assay type: cell-based
Conditions: HT-1080, HT1080scc2 cells, 1×10^3 cells per well, compound added day 1, further 4 days at 37° C., methylene blue staining read at 620 nm
Experimental: Compounds of the general formula (I) have been tested against two specially developed cell lines which are clones of the human fibrosarcoma cell-line HT1080. One clone HT1080scc2, retains the transformed phenotype of the parental line, whilst the other, HT10801c, is a morphologically flat, non-tumourigenic, revertant.
Assays for cell proliferation/cytotoxity were carried out in tissue culture grade 96 well microtitre plates (Costar). Cells in log growth were added to the plates at a concentration of 1×10^3 cells per well on day 0 and serially diluted compounds were then added on day 1. Plates were then incubated at 37° C. in 5% CO2 in air for a further 4 days.
For quantitation of cell growth, the methylene blue biomass staining method was used, the test being read on a Multiscan plate reader at wavelength of 620 nm. The morphology of the cells was checked microscopically under phase-contrast immediately before the fixation and staining with methylene blue, and by ordinary light microscopy thereafter. IC50 values for active compounds were obtained using the computer programme, GS1 and dose-response slopes were also plotted.

Row | SMILES | IC50 [µM]
1 | CCOC(=O)c1[nH]c2cc3c(C(=O)OCC)c(C)[nH]c3c(C)c2c1C [Example 1, Diethyl 1,5-dihydro-3,4,6-trimethylpyrrolo[2,3-f]indole-2,7-dicarboxylate] | 100
2 | CCOC(=O)c1[nH]c2cc3[nH]c(C)cc3c(C)c2c1C [Example 2, Ethyl 1,7-dihydro-3,4,6-trimethylpyrrolo[3,2-f]indole-2-carboxylate] | 3
